From patent US4401827A, “Novel acyl-derivatives of carnitine and process for their preparation” (Sigma-Tau, priority 1978, dated 1983)
Where two headings read alike, the source gives them in different places.

Legend:
[1] = system: arrhythmia induced by Aconitine in mice; test: arrhythmia induced by Aconitine in mice; assay type: in vivo; details: for change in vivo at 300 mg/kg / change in vivo at 150 mg/kg / change in vivo at 75 mg/kg / change in vivo at 40 mg/kg / change in vivo at 89 mg/kg: Mus musculus, iv; for antiarrhythmic activity (in words): Aconitine, mice
Description: The antiarrhythmic effect of the compounds was also investigated in mice according to the P. W. Nwangwu, T. Holcslow procedure (4). Using Aconitine (5 mg/ml) as arrhythmogenic agent, the changes in the cardiac rhythm of the animals were recorded and the onset time of initial arrhythmia and/or of ventricular tachycardia were used as End point.
Antiarrhythmic agents display an increase in the latency time of initial ECG change.
(4) P. W. Nvangvu, T. L. Holcslow, Arch. Int. Pharmacodyn. 229, 219 (1977)
on the arrhythmia induced by Aconitine (5 γ/ml) in mice.
% increase of the time to onset of initial cardiac arrythmia

[2] = system: rat's ventricle strip; test: antiarrhythmic effect, isolated rat ventricle strip test; details: for inhibition at 1 µM / activation at 1 µM: Rattus norvegicus, concentration 1·10^-6 M; for inhibition at 1 µM: decrease; for activation at 1 µM: increase
From the text: (2) M. Libonati and G. Segre, Archivio Italiano di Scienze Farmacologiche. Serie XIII, Vol. X, pag. 3, (1960)
effect of some acyl derivatives (concentration 1 · 10^-6
of the formula (1) on the rat's ventricle strip test.
% variation versus basal value.

[3] = system: plasma cholesterol, triglycerides and lipoproteins in rat; test: plasma cholesterol, triglycerides and lipoproteins in rat treated with olive oil; assay type: in vivo; details: for lipoproteic pattern altered due to oil administration (in words): rats, single treatment
Description: In the rats the lipoproteic pattern altered due to an oil administration by gavage, was restored after a single treatment with d,l dipropyl ACAR; d,l ethyl exanoyl CAR; d,l 3 bromopropionyl CAR and d,l pyruvyl CAR.
The effect of some acyl derivatives of formula (I) on plasma cholesterol,
triglycerides and lipoproteins in rat
treated with olive oil, 15 ml kg^-1 orally. Mean Values ± SEM
Student "t" test .quadrature., Δ and indicate respectively a non
significant difference, a P ≤ 1% and 1%.

[4] = acute toxicity (tolerance) i.p. in mice, Weil method; details: mouse, in vivo, ip, Weil method (N = 5, K = 4)
From the text: The tolerance of the Acyl-carnitines of the formula (I), as well as their salts administered by intraperitoneal route was investigated in mice using the Weil Method (1).
LD50, mg kg^-1 i.p. in mice,
of some acyl derivatives of formula (1).
Weil method (N = 5, K = 4)

[5] = system: rabbit hearts; test: cardiokinetic effect on isolated rabbit heart (Langendorff) after anoxia; details: equal concentrations in perfusion fluid, Student's t test versus controls
Description: The cardiokinetic effect on isolated heart was also investigated as follows. Rabbit hearts isolated by the Langendorff method were perfused with oxygenized ringer solution at 38.2° C. The isometric contractions, electrocardiogram and coronary flow were recorded using a "Battaglia-Rangoni" polygraph. By removing the oxygen from the perfusion fluid, metabolic damage was induced in the cardiac muscle, up to an 80% reduction in the cardiac contractile force.
Under these conditions of prolonged anoxia the aerobic glycolysis of the myocardium is slowed down, accompanied by the storage of acid catabolites due to both the accumulation of pyruvic acid and its conversion to lactic acid which cannot be utilized because of the depression of pyridine enzymes, such as LDH (lactodehydrogenase). This has repercussions on the anaerobic glycolysis affecting an ever increasing number of enzymes, accompanied by a progressive and increasingly critical exhaustion of the myocardium. Thus a whole series of cardiac muscle fatigue levels occurs which can be observed by the behavior of the examined parameters, namely the contractile force, coronary flow, heart rate and cardiac rhythm. As soon as the contractile force was reduced by 80%, the perfusion fluid was once again oxygenized either without adding other compounds (controls) or with the addition of the compounds under examination.
Table 2 below gives the percentage values of the contractile force of the heart, showing a positive inotropic effect, calculated after 10 minutes from the interruption of the anoxic period (myocardial restoration).
of some acyl derivatives of formula (I) on the contractile
force of rabbit's heart. (Details are given in the text)

[6] = read-out: latency time increase % of controls, arrhythmias
[7] = read-out: latency time increase % of controls, tachycardia
[8] = read-out: maximed frequency (- %), % variation versus basal value
[9] = read-out: whole excitability (- %), % variation versus basal value
[10] = read-out: refractory period (+ %), % variation versus basal value
[11] = read-out: rheobase (+ %), % variation versus basal value

Structure (SMILES)	change in vivo at 300 mg/kg [1, 6] [%]	change in vivo at 300 mg/kg [1, 7] [%]	inhibition at 1 µM [2, 8] [%]	inhibition at 1 µM [2, 9] [%]	activation at 1 µM [2, 10] [%]	activation at 1 µM [2, 11] [%]	LD50 [4] [mg/kg]	change in vivo at 150 mg/kg [1, 6] [%]	change in vivo at 150 mg/kg [1, 7] [%]	also measured
CCCCC(CC)C(=O)OC(CC(=O)[O-])C[N+](C)(C)C (racemic) [d,l 2-ethylhexanoyl CAR]	20	10	25.5	40.3	22.8	21.8	950	–	–	lipoproteic pattern altered due to oil administration (in words) [3]: restored
C[N+](C)(C)CC(CC(=O)[O-])OC(=O)CCBr (racemic) [d,l 3-Br--propionyl CAR]	–	–	17.3	39.7	40.2	26.1	950	20	10	Lipoproteins, VLDL ([3]; olive oil 15 ml kg^-1 orally, compound ip, mean ± SEM, N = 8, oil control 15.84 ± 1.53): 11.22 ± 1.22%; Lipoproteins, HDL ([3]; olive oil 15 ml kg^-1 orally, compound ip, mean ± SEM, N = 8, oil control 24.18 ± 2.15): 30.45 ± 2.87%; Lipoproteins, LDL ([3]; olive oil 15 ml kg^-1 orally, compound ip, mean ± SEM, N = 8, oil control 57.38 ± 2.25): 51.26 ± 2.49%; cholesterol ([3]; olive oil 15 ml kg^-1 orally, compound ip, mean ± SEM, N = 8, oil control 88.33 ± 2.96): 76.18 ± 3.02 mg/100 ml; triglycerides ([3]; olive oil 15 ml kg^-1 orally, compound ip, mean ± SEM, N = 8, oil control 213.66 ± 28.68): 123.48 ± 12.16 mg/100 ml; lipoproteic pattern altered due to oil administration (in words) [3]: restored
C[N+](C)(C)CC(CC(=O)[O-])OC(=O)CCCCl (racemic) [d,l 4-Cl--butyryl CAR]	20	10	60.2	55.1	38.3	35.2	850	–	–	antiarrhythmic properties (in words) ([2]; isolated rat ventricle method): most clear out antiarrhythmic properties
C[N+](C)(C)CC(CC(=O)[O-])OC(=O)C1CCCCC1 (racemic) [d,l cyclohexyl CAR]	50	38	22.1	26.4	15.8	18.2	850	–	–	–
C[N+](C)(C)CC(CC(=O)[O-])OC(=O)CCC1CCCCC1 (racemic) [d,l cyclohexylpropionyl CAR]	–	–	45.3	25.5	12.5	22.4	955	70	55	antiarrhythmic activity (in words) [1]: markedly exhibited
CCC(CC)C(=O)OC(CC(=O)[O-])C[N+](C)(C)C (racemic) [d,l diethyl ACAR]	25	32	25.1	27.5	31.2	20.6	1200	–	–	–
C[N+](C)(C)CC(CC(=O)[O-])OC(=O)C=Cc1cccc(Br)c1 (racemic) [d,l m-bromocinnamoyl CAR]	–	–	28.5	50.4	45.2	38.1	650	40	28	–
C[N+](C)(C)CC(CC(=O)[O-])OC(=O)Cc1ccc2ccccc2c1 (racemic) [d,l naphtalene ACAR]	–	–	41.2	40.1	39.3	41.2	880	–	–	change in vivo at 75 mg/kg [1, 6]: 25%; change in vivo at 75 mg/kg [1, 7]: 10%
C[N+](C)(C)CC(CC(=O)[O-])OC(=O)C=Cc1ccc(Cl)cc1 (racemic) [d,l p-chlorocinnamoyl CAR]	25	10	25.1	22.2	22.3	20.4	935	–	–	–
CC(C)Cc1ccc(CC(=O)OC(CC(=O)[O-])C[N+](C)(C)C)cc1 (racemic) [d,l p-isobutyl phenyl ACAR]	20	10	38.2	35.2	22.5	22.2	378	–	–	–
COc1ccc(C=CC(=O)OC(CC(=O)[O-])C[N+](C)(C)C)cc1 (racemic) [d,l p-methoxycinnamoyl CAR]	–	–	22.2	31.5	36.1	22.2	440	70	56	antiarrhythmic activity (in words) [1]: markedly exhibited
Cc1ccc(C=CC(=O)OC(CC(=O)[O-])C[N+](C)(C)C)cc1 (racemic) [d,l p-methylcinnamoyl CAR]	–	–	38.6	71.1	45.3	32.4	620	20	9	–
CC(C)(C)C(=O)OC(CC(=O)[O-])C[N+](C)(C)C (racemic) [d,l pivaloyl CAR]	20	10	58.4	65.5	40.6	40.2	855	–	–	–
C[N+](C)(C)CC(CC(=O)[O-])OC(=O)C=Cc1cccc(C(F)(F)F)c1 (racemic) [d,l trifluoromethylcinnamoyl CAR]	–	–	41.3	24.3	25.7	19.5	845	–	–	change in vivo at 40 mg/kg [1, 6]: 50%; change in vivo at 40 mg/kg [1, 7]: 30%
C=C[C@H]1C[N@@]2CC[C@H]1C[C@@H]2[C@@H](O)c1ccnc2ccc(OC)cc12 [Quinidine, reference compound]	–	–	72.5	191	57.4	51.2	–	–	–	change in vivo at 89 mg/kg [1, 6]: 50%; change in vivo at 89 mg/kg [1, 7]: 41.7%
C[N+](C)(C)CC(CC(=O)[O-])OC(=O)CCBr (centres unmarked) [bromopropionyl]	–	–	–	–	–	–	–	–	–	positive inotropic effect (in words) [5]: greater positive inotropic effect than that of the other compounds under examination
CCCC(CCC)C(=O)O[C@@H](CC(=O)[O-])C[N+](C)(C)C [d dipropyl ACAR]	–	–	22.4	25.5	38.3	21.7	1600	–	–	change in vivo at 40 mg/kg [1, 6]: 50%; change in vivo at 40 mg/kg [1, 7]: 30%
C[N+](C)(C)C[C@@H](CC(=O)[O-])OC(=O)CCBr [l 3-Br--propionyl CAR]	–	–	50.5	60.2	45.1	42.4	960	25	12	–
CC(C)(C)C(=O)O[C@H](CC(=O)[O-])C[N+](C)(C)C [l pivaloyl CAR]	25	15	60.4	48.1	38.3	35.1	618	–	–	–
C[N+](C)(C)C[C@@H](CC(=O)[O-])OC(=O)C=Cc1cccc(C(F)(F)F)c1 [l trifluoromethylcinnamoyl CAR]	–	–	32.7	60.5	40.1	39.2	540	–	–	change in vivo at 40 mg/kg [1, 6]: 60%; change in vivo at 40 mg/kg [1, 7]: 45%
